Experiments:
[1] = target: T1, 5-hydroxytryptamine receptor 1A (Homo sapiens, UniProt P08908); assay: Binding affinity at human 5-hydroxytryptamine 1A receptor by inhibition of [3H]8-OH-DPAT binding in Chinese hamster ovary cell line; assay type: cell-based
T1 sequence (P08908 whole entry): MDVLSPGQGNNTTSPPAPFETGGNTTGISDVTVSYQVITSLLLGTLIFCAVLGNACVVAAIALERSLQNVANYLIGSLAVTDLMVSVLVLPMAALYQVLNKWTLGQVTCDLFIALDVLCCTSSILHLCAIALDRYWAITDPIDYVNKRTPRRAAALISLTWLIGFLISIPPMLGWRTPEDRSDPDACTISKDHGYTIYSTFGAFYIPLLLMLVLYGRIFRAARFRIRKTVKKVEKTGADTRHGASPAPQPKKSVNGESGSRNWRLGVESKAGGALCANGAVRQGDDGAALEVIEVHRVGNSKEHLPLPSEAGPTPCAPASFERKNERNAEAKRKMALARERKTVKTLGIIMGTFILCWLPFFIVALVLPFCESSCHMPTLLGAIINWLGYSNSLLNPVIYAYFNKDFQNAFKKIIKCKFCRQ

[2] = target: T2, Adrenergic receptor alpha-1 (Rattus norvegicus, UniProt P15823+P23944+P43140); assay: Binding affinity at Alpha-1 adrenergic receptor by inhibition of [3H]-prazosin binding to rat cortex
T2 sequence (P15823 whole entry): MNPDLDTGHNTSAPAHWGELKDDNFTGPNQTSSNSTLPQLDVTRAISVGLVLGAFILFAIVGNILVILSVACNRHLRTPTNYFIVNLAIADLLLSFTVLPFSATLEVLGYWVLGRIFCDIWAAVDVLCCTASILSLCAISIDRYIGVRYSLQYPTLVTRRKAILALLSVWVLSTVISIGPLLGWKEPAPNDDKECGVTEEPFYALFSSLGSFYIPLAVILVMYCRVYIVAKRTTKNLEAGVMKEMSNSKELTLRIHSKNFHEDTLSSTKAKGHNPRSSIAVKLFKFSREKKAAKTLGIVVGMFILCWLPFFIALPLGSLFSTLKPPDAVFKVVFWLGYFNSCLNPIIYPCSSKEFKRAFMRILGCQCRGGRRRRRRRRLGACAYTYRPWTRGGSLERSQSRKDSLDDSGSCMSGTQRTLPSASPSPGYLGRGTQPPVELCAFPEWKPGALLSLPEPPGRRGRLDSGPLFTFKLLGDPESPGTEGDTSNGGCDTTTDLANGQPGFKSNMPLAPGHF
T2 sequence (P23944 whole entry): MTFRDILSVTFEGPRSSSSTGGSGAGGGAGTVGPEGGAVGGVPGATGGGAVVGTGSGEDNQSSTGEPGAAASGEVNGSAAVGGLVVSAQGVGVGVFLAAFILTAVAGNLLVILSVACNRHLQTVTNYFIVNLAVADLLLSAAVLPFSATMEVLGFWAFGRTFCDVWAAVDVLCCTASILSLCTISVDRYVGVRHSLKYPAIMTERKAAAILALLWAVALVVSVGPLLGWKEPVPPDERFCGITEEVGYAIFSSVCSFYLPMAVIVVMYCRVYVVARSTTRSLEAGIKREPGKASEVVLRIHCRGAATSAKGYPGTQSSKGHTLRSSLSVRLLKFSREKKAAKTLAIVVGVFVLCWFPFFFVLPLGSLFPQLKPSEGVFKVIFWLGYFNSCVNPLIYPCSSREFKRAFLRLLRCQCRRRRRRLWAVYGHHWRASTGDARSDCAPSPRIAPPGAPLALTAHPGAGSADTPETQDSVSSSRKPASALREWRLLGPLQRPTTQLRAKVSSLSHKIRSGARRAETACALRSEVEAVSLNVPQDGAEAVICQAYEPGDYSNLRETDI
T2 sequence (P43140 whole entry): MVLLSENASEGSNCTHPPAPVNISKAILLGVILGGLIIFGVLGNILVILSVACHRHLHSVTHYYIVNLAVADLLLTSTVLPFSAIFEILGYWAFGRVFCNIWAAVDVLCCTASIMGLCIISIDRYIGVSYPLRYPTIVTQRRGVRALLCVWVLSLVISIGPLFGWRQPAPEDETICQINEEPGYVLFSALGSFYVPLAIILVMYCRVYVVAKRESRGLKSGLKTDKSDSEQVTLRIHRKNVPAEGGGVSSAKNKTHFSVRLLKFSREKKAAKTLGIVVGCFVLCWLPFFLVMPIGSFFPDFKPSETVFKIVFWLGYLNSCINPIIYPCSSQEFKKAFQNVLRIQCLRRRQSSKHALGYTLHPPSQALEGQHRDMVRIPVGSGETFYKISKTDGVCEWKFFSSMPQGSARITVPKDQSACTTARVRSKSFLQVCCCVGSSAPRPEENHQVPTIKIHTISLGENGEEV

[3] = Selectivity ratio towards Alpha-1 adrenergic receptor to human 5-hydroxytryptamine 1A receptor
[4] = In vitro oral metabolic bioavailability after incubation with hepatic microsomes; assay type: ADME, Liver; conditions: read-out: MF
[5] = target: T3, 5-hydroxytryptamine receptor 1A (Rattus norvegicus) (UniProt P19327); assay: Antagonistic activity at postsynaptic 5-hydroxytryptamine 1A receptor was measured by its ability to inhibit hypothermia elicited by s.c. administration of 8-OH-DPAT in rat;ranges from (0.37-4.27); assay type: functional, organism-based
T3 sequence (whole entry): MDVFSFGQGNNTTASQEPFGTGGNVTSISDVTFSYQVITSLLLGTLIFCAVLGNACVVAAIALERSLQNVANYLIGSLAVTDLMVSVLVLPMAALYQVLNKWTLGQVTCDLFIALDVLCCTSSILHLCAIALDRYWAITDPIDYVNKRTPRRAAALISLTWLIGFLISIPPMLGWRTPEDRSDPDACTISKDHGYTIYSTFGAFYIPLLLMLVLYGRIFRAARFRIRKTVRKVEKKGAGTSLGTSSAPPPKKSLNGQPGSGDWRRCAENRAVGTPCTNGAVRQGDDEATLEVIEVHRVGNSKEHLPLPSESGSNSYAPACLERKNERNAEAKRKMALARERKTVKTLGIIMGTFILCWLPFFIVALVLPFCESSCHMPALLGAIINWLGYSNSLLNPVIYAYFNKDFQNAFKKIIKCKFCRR

[6] = target: T3, 5-hydroxytryptamine receptor 1A (Rattus norvegicus); assay: Antagonistic activity at postsynaptic 5-hydroxytryptamine 1A receptor was measured by its ability to inhibit hypothermia elicited by s.c. administration of 8-OH-DPAT in rat;ranges from (1.50-16.5); assay type: functional, organism-based
[7] = target: T3, 5-hydroxytryptamine receptor 1A (Rattus norvegicus); assay: Antagonistic activity at postsynaptic 5-hydroxytryptamine 1A receptor was measured by its ability to inhibit hypothermia elicited by s.c. administration of 8-OH-DPAT in rat;ranges from (0.80-5.80); assay type: functional, organism-based
[8] = target: T3, 5-hydroxytryptamine receptor 1A (Rattus norvegicus); assay: Antagonistic activity at postsynaptic 5-hydroxytryptamine 1A receptor was measured by its ability to inhibit hypothermia elicited by s.c. administration of 8-OH-DPAT in rat;ranges from (0.40-2.70); assay type: functional, organism-based

SMILES | Ki [1] [nM] | Log Ki [2] | Ratio [3] | also measured
O[C@@H]1c2ccc(F)cc2C[C@H]1N1CCC(c2cccc3c2OCC3)CC1 (relative stereo) | 1.51 | -7.34 | 30 | 
O[C@H]1c2ccc(F)cc2C[C@H]1N1CCC(O)(c2cccc3c2OCCO3)CC1 (relative stereo) | > 1000 |  |  | 
O[C@H]1c2ccc(F)cc2C[C@H]1N1CCN(c2cccc3c2OCCC3)CC1 (relative stereo) | 316 |  |  | 
COc1ccc2c(c1)C[C@@H](N1CCN(c3cccc4c3OCCO4)CC1)[C@H]2O (relative stereo) | 23.4 |  |  | 
O[C@@H]1c2cc(F)c(F)cc2C[C@H]1N1CCC(c2cccc3c2OCCO3)CC1 (relative stereo) | 2.19 | -7.08 | 38 | ID50 [6]: 5 mg/kg; Fh [4]: 5%
COc1cc2c(cc1OC)[C@@H](O)[C@H](N1CCC(c3cccc4c3OCCO4)CC1)C2 (relative stereo) | 79.4 | -6.9 | 1.5 | 
OCC1COc2c(cc(Cl)cc2N2CCN([C@@H]3Cc4cc(F)ccc4[C@H]3O)CC2)O1 (relative stereo) | 10.5 | -6.17 | 64 | 
O[C@H]1c2ccccc2C[C@H]1N1CC=C(c2cccc3c2OCCO3)CC1 (relative stereo) | 22.9 |  |  | 
O[C@@H]1c2ccc(F)cc2C[C@H]1N1CC=C(c2cccc3c2SCCC3)CC1 (relative stereo) | 11.7 |  |  | 
O[C@@H]1c2ccc(F)cc2C[C@H]1N1CCC(O)(c2cccc3c2OCCO3)CC1 (relative stereo) | > 1000 | -6.31 | < 1 | 
COc1ccc2c(c1)[C@H](O)[C@H](N1CCN(c3cccc4c3OCCO4)CC1)C2 (relative stereo) | 17.4 |  |  | 
O[C@@H]1c2ccc(F)cc2C[C@H]1N1CCN(c2cccc3c2OCCO3)CC1 (stereo in doubt; (-)) | 2.04 |  |  | 
O[C@H]1c2ccc(F)cc2C[C@H]1N1CCC(c2cccc3c2OCCO3)CC1 (relative stereo) | 26.9 |  |  | 
COc1ccc2c(c1)C[C@@H](N1CCN(c3cccc4c3OCCO4)CC1)[C@@H]2O (stereo in doubt; (+)) | 6.61 |  |  | 
O[C@@H]1c2ccc(F)cc2C[C@H]1N1CCC(c2cc(F)cc3c2OCCC3)CC1 (relative stereo) | 4.9 | -7.26 | 11 | 

These reach a lower Ki [1]. Values come first.

Ki [1] [nM] | Log Ki [2] | Ratio [3] | SMILES | also measured
1.32 | -6.07 | 645 | O[C@@H]1c2ccc(F)cc2C[C@H]1N1CCN(c2cc(Cl)cc3c2OCCO3)CC1 (relative stereo) | 
1.26 | -6.15 |  | O[C@@H]1c2ccc(F)cc2C[C@H]1N1CCN(c2cccc3c2OCCO3)CC1 (racemic) | Fh [4]: 65%
0.447 | -6.57 | 603 | COc1ccc2c(c1)[C@@H](O)[C@H](N1CCN(c3cccc4c3OCCO4)CC1)C2 (relative stereo) | ID50 [5]: 1.25 mg/kg; Fh [4]: 62%
0.437 | -7.19 | 148 | O[C@@H]1c2ccc(F)cc2C[C@H]1N1CCC(c2cccc3c2OCCO3)CC1 (relative stereo) | Fh [4]: 7%
0.776 | -7.1 | 102 | O[C@@H]1c2cc(F)ccc2C[C@H]1N1CCC(c2cccc3c2OCCO3)CC1 (relative stereo) | ID50 [7]: 2.1 mg/kg; Fh [4]: 8%
1.32 | -6.13 | 561 | O[C@@H]1c2cc(F)ccc2C[C@H]1N1CCN(c2cccc3c2OCCO3)CC1 (relative stereo) | ID50 [8]: 1 mg/kg; Fh [4]: 46%
1.17 | -7.77 | 14.5 | Cc1ccc2c(c1)C[C@@H](N1CCC(c3cccc4c3OCCO4)CC1)[C@@H]2O (relative stereo) | 
1.02 |  |  | COc1ccc2c(c1)C[C@@H](N1CCN(c3cccc4c3OCCO4)CC1)[C@@H]2O (stereo in doubt; (-)) | 
0.631 |  |  | O[C@@H]1c2ccc(F)cc2C[C@H]1N1CCN(c2cccc3c2OCCO3)CC1 (stereo in doubt; (+)) | 
0.302 | -7.64 | 76 | O[C@@H]1c2ccc(F)cc2C[C@H]1N1CCC(c2cccc3c2OCCC3)CC1 (relative stereo) | 
1.26 | -6.55 |  | COc1ccc2c(c1)C[C@@H](N1CCN(c3cccc4c3OCCO4)CC1)[C@@H]2O (racemic) | Fh [4]: 80%
0.55 | -7.44 | 66 | Cc1ccc2c(c1)[C@@H](O)[C@H](N1CCC(c3cccc4c3OCCO4)CC1)C2 (relative stereo) | 
1.29 | -6.67 | 166 | O[C@@H]1c2ccc(F)cc2C[C@H]1N1CCN(c2cccc3c2OCCC3)CC1 (relative stereo) | 
